Results on 87 compounds are retold here after PubChem BioAssay AID2305 (GlaxoSmithKline (GSK), 2010).

SMILES strings stand for the structures. pIC50: −log10 of the molar value. Several values for one entry are separate records, joined by “and”; a condition that tells them apart may be missing. Identical values can stand only once.

The subject of the experiment is P. falciparum 3D7 growth, pLDH absorbance. Description: blood-stage malaria parasite growth potency – strain 3D7, dose response (AID 2305).
The pIC50 is −log10 of the IC50, conventionally taken in molar units. Higher therefore signals a low IC50. `COc1ccc(CNCc2ccccc2)cc1-c1ccc(S(=O)(=O)NCCN2CCCC2)c(C)c1` had a pIC50 of 6.07. Next, `Cc1nnsc1C(=O)Nc1ccc(-c2cccc(-c3nc4c(C)cccc4[nH]3)c2)cc1`: 6.20; `C=CCOC(=O)N1CCC(CNCc2ccc(-c3cccc(-c4nc5ccc(F)cc5[nH]4)c3)cc2)C1` (configuration not stated): 6.85; `COc1cc(Br)c(NC(=O)Nc2ccc(C(F)(F)F)c(O[C@@H]3CCN(C)C3)c2)cc1OC`: 6.20.

`Cc1[nH]c2ccc(-c3ccc(OC(F)(F)F)cc3)cc2c(=O)c1C#N` showed a pIC50 of 7.70.

With `CCNC[C@H]1CCCN1CCOc1ccc(-n2cnc3cc(-c4ccc(Cl)cc4)sc3c2=O)cc1OC`, the pIC50 is 6.09. The compound `CC(=O)c1nccc(C)c1N` had a negative logarithm of the IC50 (pIC50) of 6.03.

In turn, `COCCNCc1ccc(-c2ccc(CN(C(=O)Nc3ccccc3)C3CCN(Cc4ccccc4)CC3)cc2)cc1` gave a pIC50 of 6.12. The pIC50 values of the last two compounds are within 0.2 log units of each other. Next, `Cc1cc(N2CCOCC2)nc2ccc(NC(=O)c3cccc([N+](=O)[O-])c3)cc12`: 6.05.

In turn, `O=C(Cc1ccccc1)NC(c1ccccc1)c1ccc2cccnc2c1O` (configuration not stated) had a pIC50 of 6.02. The same measure for `COc1ccc(CN2CCC(CN3CC4(OC3=O)c3ccccc3-c3ccccc34)C2)c(O)c1` (configuration not stated): 6.21. The same measure for `FC(F)(F)c1ccc2nc(-c3cccc(-c4cccc(CNCCc5ccncc5)c4)c3)[nH]c2c1`: 6.85; for `c1ccc(COc2ccc(Nc3ncnc4ccc(-c5ccc(CN6CCSCC6)o5)cc34)cc2)cc1`: 6.08. Next, `Oc1ccc(CCCNc2nc(NCc3ccccc3-c3ccccc3)nc(NC3CCNCC3)n2)cc1`: 6.07; `CCOc1ccc(-c2nonc2NC(=O)c2ccccc2)cc1OCC`: 6.59; `Oc1ccc2ccccc2c1CNCC1CCCCC1`: 6.17. As to `COC(=O)c1sccc1NC(=S)NC1CCC(CN2CCC(c3c[nH]c4ccccc34)CC2)CC1` (configuration not stated), the negative-log IC50 (pIC50) is 6.04 and 6.24. For `O=C(Nc1ccc(F)cc1)NC1CCN(c2ccnc3ccccc23)C1` (configuration not stated), the pIC50 is 6.06. The same measure for `O=C(NCCCCN1CCC(c2ccc3c(c2OCC(O)c2ccc(Cl)cc2)CCCC3)CC1)c1ccc(-c2ccc(C(F)(F)F)cc2)cc1` (configuration not stated): 5.98; for `COc1ccccc1Oc1c(N(C)S(=O)(=O)c2ccc(C(C)C)cc2)nc(C(F)(F)F)nc1N(C)S(=O)(=O)c1ccc(C(C)C)cc1`: 6.07. `Cc1ccc(CNC(=O)[C@H](CC(C)C)Nc2cc(C)nc(NCc3ccccc3C)n2)cc1` showed a negative-log IC50 (pIC50) of 6.02. With `O=C(c1cc(-c2ccco2)[nH]n1)N1CCN(S(=O)(=O)c2ccc(Cl)cc2)CC1`, the negative-log IC50 (pIC50) was 6.44. This pIC50 lies 0.42 log units higher than the previous one. The same measure for `N#Cc1ccccc1Sc1ccccc1C(=O)Nc1ccc2ccccc2n1`: 6.29. With `CS(=O)(=O)Cc1ccc(Nc2nccc(-c3c(-c4cccc(NC(=O)C5CCCCC5)c4)nn4ncccc34)n2)cc1`, the pIC50 was 6.70.

Take `Cc1ccc(-c2nc(Nc3ccncc3)c3ccccc3n2)s1`: the negative logarithm of the IC50 (pIC50) is 6.08.

For `Oc1c(C(Nc2ccccn2)c2ccco2)cc(Cl)c2cccnc12` (configuration not stated), the pIC50 is 6.00. Next, `Nc1nnc(-c2ccc(Cl)c(Br)c2)c(N)n1`: 5.98. In the case of `CCOC(=O)NOC(C(=O)O)c1ccccc1` (configuration not stated), the pIC50 was 6.72. The same measure for `O=C(Nc1ccc(OC2CCN(Cc3ccsc3)C2)c(Cl)c1)c1ccco1` (configuration not stated): 6.22. In turn, `Cc1[nH]c2ccccc2c1CC1CCN(CC2CCN(C(=O)/C=C/c3ccc(Cl)c(Cl)c3)CC2)CC1` showed a negative logarithm of the IC50 (pIC50) of 6.02.

Compound `Cc1c(-c2ccc(C(=O)NC3CC(C)(C)NC(C)(C)C3)cc2)[nH]c2cc(Cl)c(Cl)cc12` had a negative-log IC50 (pIC50) of 6.12. Compound `O=C(/C=C/c1ccc(Cl)c(Cl)c1)NCCCCCCN1CCCN(C(=O)Nc2cccc(Cl)c2)CC1` gave a negative-log IC50 (pIC50) of 6.07. This pIC50 and that of the compound before are within 0.2 log units of each other.

With `COCCCNC(=O)C1CCN(C(c2ccc(Cl)cc2)c2ccc(Cl)cc2)CC1`, the negative-log IC50 (pIC50) is 6.04. The same measure for `COc1ccc(CN2C(=S)N(Cc3ccccc3)C(=O)C2CC(=O)Nc2ccccc2)cc1OC` (configuration not stated): 6.08; for `NC(=O)c1cccc(C(=O)Nc2cccc(-c3cccc(-c4nc5ccccc5[nH]4)c3)c2)c1`: 6.26. The compound `O=C(/C=C/c1ccc(Cl)c(Cl)c1)N1CCC(CN2[C@@H]3CC[C@H]2CC(c2c[nH]c4ccccc24)C3)CC1` (some centres not stated) showed a pIC50 of 6.13. The same measure for `Cc1nnnn1-c1ccc(C(=O)N2CCC3(CC2)CN(Cc2ccc(Cl)c(Cl)c2)C(=O)O3)cc1`: 6.74; for `COc1ccc(-n2ccnc2SCC(=O)Nc2cccc(C(F)(F)F)c2)c(OC)c1`: 6.66.

Take `CCOc1ccc2c(NN=Cc3cc(OC)c(OC)cc3OC)cc(C)nc2c1`: the negative-log IC50 (pIC50) is 6.00. Next, `CC(=O)N(Cc1nc(-c2cc(C(F)(F)F)cc(C(F)(F)F)c2)cs1)c1c(C)cccc1C`: 6.96.

For the compound `CN1CCCc2ccc(NC(=O)C=Cc3ccc(-c4ccc(F)cc4F)o3)cc2C1`, the pIC50 is 6.28.

Turning to `N#Cc1ccc(C=CC(=O)NC2CCC(CCN3CCc4ccc(-c5cnccn5)cc4CC3)CC2)cc1` (configuration not stated), the negative-log IC50 (pIC50) is 6.21. This pIC50 and that of the compound before are within 0.2 log units of each other. As for `COc1ccc(CNC2Cc3ccccc3C2)cc1-c1ccc(S(=O)(=O)NCCN2CCCC2)cc1`, the pIC50 was 6.24. Next, `COc1nc(Nc2cccc(C)c2)nc(OC)n1`: 6.00; `Nc1nc(N)c2cc(CNc3ccc(Cl)c(Cl)c3)ccc2n1`: 5.99.

`CC1CCCN(c2ccc(NC(=O)c3cccs3)cc2[N+](=O)[O-])C1` (configuration not stated) showed a pIC50 of 6.17. The pIC50 values of the last two compounds are within 0.2 log units of each other. `COc1ccc2nccc([C@@H](O)CN3CCC(NS(=O)(=O)c4cc(Br)c(Br)s4)CC3)c2c1`: the negative logarithm of the IC50 (pIC50) is 6.07. Next, `CC(C)CNCc1cccc(-c2ccc(CN(C(=O)Nc3ccccc3)C3CCN(Cc4ccccc4)CC3)cc2)c1`: 6.32; `O=C1OC(c2ccccc2)(c2ccccc2)CN1CC1CCN(Cc2ccc(O)c(Cl)c2)CC1`: 6.09; `CCC[C@@H]([C@@H](CC1CCC(C)CC1)C(=O)N[C@@H](CCCNc1ncccn1)C(=O)Nc1nccs1)N(O)C=O` (some centres not stated): 6.72.

For `c1cc(C2=N[C@H]3CCCC[C@@H]3N2)ccc1OCCCOc1ccc(C2=N[C@@H]3CCCC[C@H]3N2)cc1`, the pIC50 is 6.14.

Turning to `CCN(CC)CCN(Cc1ccc(-c2ccc(C(F)(F)F)cc2)cc1)C(=O)Cn1c(CCc2cc(F)cc(F)c2)nc(=O)c2ccccc21`, the negative logarithm of the IC50 (pIC50) is 6.01.

In the case of `COc1ccc(CNC2Cc3ccccc3C2)cc1-c1ccc(S(=O)(=O)NCc2ccccc2)s1`, the pIC50 is 6.08. The pIC50 values of the last two compounds are within 0.2 log units of each other.

Regarding `COc1cc(C=CC(=O)N2CCC(CN3CCC(c4c[nH]c5ccccc45)CC3)CC2)cc(OC)c1`, the negative logarithm of the IC50 (pIC50) was 6.10. The same measure for `CC(C)Cn1ncc2c3c(N)nc(N)nc3ccc21`: 6.80.

`Nc1ncc(-c2ccc(F)cc2)cc1-c1nc2ccc(Cl)cc2[nH]1` gave a negative logarithm of the IC50 (pIC50) of 6.12. Next, `CN1CCN(c2ccc(-c3cc(-c4ccncc4)c(-c4ccc(Cl)c(O)c4)o3)cc2)CC1`: 6.13. The same measure for `O=C(Cc1ccc(-n2cnnn2)cc1)N(Cc1cncn1Cc1cccc(C(F)(F)F)c1)CC1CC1`: 6.02; for `CCCC(CNC(=O)c1cc2c(Cl)cc(Cl)cc2[nH]1)CNc1cc(=O)c2ccccc2[nH]1` (configuration not stated): 6.05. Next, `C[C@@H](Nc1nc(NCc2ccccc2)c2sccc2n1)c1ccccc1`: 6.04; `CCOc1ccc(Br)cc1/C=C/C(=O)Nc1ccc2c(c1)CCCN(C)C2`: 5.98. `Cc1nc2nc(N)nc(N)c2c(C)c1Cc1c(Cl)cccc1Cl` gave a pIC50 of 7.30. The same measure for `CC1(C)C=C(c2ccncc2)c2cc(Cl)ccc2O1`: 6.37; for `CCCc1cc(Cc2cnc(N)nc2N)cc(CCC)c1OCCCCCC(=O)OCC`: 7.30; for `Cc1cc(NN=Cc2ccc(F)cc2)c2cc(F)ccc2n1`: 6.19. `CS(=O)(=O)Nc1cccc(-c2cnc3[nH]cc(-c4ccc(CN)cc4)c3c2)c1` gave a pIC50 of 6.00. In turn, `CC(C)C(=O)NC(c1ccc(Cl)cc1)c1ccc2cccnc2c1O` (configuration not stated) gave a pIC50 of 6.06. The pIC50 values of the last two compounds are within 0.2 log units of each other. The same measure for `CC(C)(C)c1ccc(CNC(=O)c2ccc(-c3nc4ccc(C(C)(C)C)cc4[nH]3)cc2)cc1`: 6.08; for `CCNc1cc(C(=O)N[C@@H](Cc2ccccc2)[C@H](O)CNC2CCC(C(C)(C)C)CC2)cc(N2CCCC2=O)c1` (some centres not stated): 6.36; for `Cc1cccc2[nH]c(-c3ccc(-c4cccc(CNCCN5CCNCC5)c4)cc3)nc12`: 5.91. Next, `O=C(NCc1ccc(Cl)c(Cl)c1)c1ccc(C2CCCN(Cc3ccc4nc[nH]c4c3)C2)cc1` (configuration not stated): 6.11; `CN(CCCc1c[nH]c2ccccc12)CCC1CCC(NC(=O)/C=C/c2ccc(Cl)c(Cl)c2)CC1` (configuration not stated): 6.19. Next, `COc1ccc2ncc(F)c(CCN3CCC(NCc4ccc5c(c4)CCO5)CC3)c2n1`: 6.17; `COc1ccc(NC(=S)NC(NC(=O)CF)C(Cl)(Cl)Cl)cc1[N+](=O)[O-]` (configuration not stated): 6.32; `C=CCc1ccc(C2CCN(CCCCNC(=O)c3ccc(NC(=O)c4ccc(Cl)cc4)cc3)CC2)cc1`: 5.95. Compound `O=S(=O)(c1ccc(OCc2ccc(Cl)cc2)cc1)c1cc2c(cc1OCc1ccccc1)CCN(C1CCC1)CC2` showed a negative logarithm of the IC50 (pIC50) of 5.99. This pIC50 and that of the compound before are within 0.2 log units of each other.

For the compound `CC(C)(NCc1ccc(OC(F)(F)F)cc1)c1nc(-c2ccc(Cl)c(O)c2)c(-c2ccncc2)[nH]1`, the negative-log IC50 (pIC50) was 6.03. The pIC50 values of the last two compounds are within 0.2 log units of each other. The same measure for `COc1cccc(CNc2noc(-c3c(-c4ccccc4)noc3C)n2)c1OC`: 6.06. The compound `Cc1c(Cl)ccc2sc(N3CCN(C(=O)c4ccc([N+](=O)[O-])o4)CC3)nc12` gave a pIC50 of 6.12. Next, `O=C(Nc1cccc(CN2CCCN(CC3CC3)CC2)c1)c1ccc(Cl)c(Cl)c1`: 5.99. Next, `COc1cc(Cc2cnc(N)nc2N)cc(OC(C)C)c1OC`: 5.98.

In turn, `CCc1cccc(C)c1-n1nc(-c2cc(C(C)(C)C)oc2C)cc1N` had a negative-log IC50 (pIC50) of 6.18. Next, `CN1CCN(Cc2nc(-c3ccc4c(Nc5ccc(F)c(O)c5)ccnc4c3)cs2)CC1`: 6.77; `O=C(c1ccc([N+](=O)[O-])o1)N1CCN(c2ccccc2)CC1`: 7.40. Next, `O=C(Nc1cccnc1)c1cn(-c2ccccc2)nc1-c1cccs1`: 6.06; `O=[N+]([O-])c1ccc(Nc2nc(NN=Cc3cccc(O)c3)nc(N3CCCC3)n2)cc1`: 5.97; `Cc1[nH]c2cc(Cl)ccc2c1C1=CCN(CCCCC2(C)C(=O)Nc3c(F)cccc32)CC1` (configuration not stated): 6.08.
